“Also recorded” adds a separate entry of the source. Counter-ions that a name gives are not always drawn.
How the values were obtained:
Assay type in all cases: in vivo, Vitis vinifera
Crimson Seedless grapes = experiment: Trial, Example 2: visual color rating of grape clusters on a 1 to 8 scale; design: key to Color Ratings: 1 = little/no red color, 8 = deep/dark red color; conditions: for Color Ratings: applied day 0 and day 11, 1 to 8 grading scale; for red color development in comparison with the untreated control: six-week evaluation period
Procedure: Another trial was conducted in California on Crimson Seedless grapes to compare the efficacy of S-ABA, 3′-methyl-(S)-ABA and 3′-propargyl-(S)-ABA in promoting coloration. All three compounds were formulated as aqueous solutions of the corresponding potassium salt to the desired concentrations, with the final pHs being between 6.5 and 7.2. Individual Crimson Seedless grape clusters were selected and tagged, with 20 tagged clusters per treatment. The solutions were applied as cluster-directed sprays using a trigger sprayer at 15 to 20 milliliters per cluster which ensured good coverage of the grapes. The treatments were applied on day 0 and day 11 of the trial. Periodically during the trial, the grape clusters were evaluated for color development by visual ratings over a six-week period and the coloration was graded on a 1 to 8 grading scale, where a rating of 1 has very little or no red color and a rating of 8 has a deep or dark red color.

[1] = test system: Crimson Seedless grape clusters; experiment: Field study, Example 1: anthocyanin content of berries harvested about four weeks after treatment; conditions: berries harvested about four weeks after treatment
Procedure: (§1) A field study was conducted in California to compare the efficacy of S-ABA to 3′-methyl-(S)-ABA in promoting red grape coloration. S-ABA and 3′-methyl-(S)-ABA were formulated as aqueous solutions of the corresponding potassium salt to the desired concentrations with the final pHs being between 6.5 and 7.2. Individual Crimson Seedless grape clusters were selected and tagged, with 20 tagged clusters per treatment. The treatments were applied as cluster-directed sprays using a trigger sprayer at 15 to 20 mL per cluster to ensured good coverage of the grapes. Application of 15 to 20 milliliters per cluster simulates application of about 109 gallons per acre directed at the approximately 40 clusters per vine in a vineyard with 518 vines per acre. Based on these estimates, Applicant determined the approximate grams per acre. The equation is as follows: 20 ml/cluster×40 cluster/vine=800 ml/vine×518 vine/acre=(414,400 ml/acre)/(1000 ml/liter)=414 liters/acre. An estimation of grams per acre was made by multiplying the mg per cluster with 20,720 clusters/acre (40 clusters/vine×518 vines/acre=20,720 clusters/acre).
(§2) Periodically after the treatments, the grape clusters were evaluated for color development by visual ratings over a six-week period. The coloration was graded on a 1 to 8 grading scale, where a rating of 1 has very little or no red color and a rating of 8 has a deep or dark red color. The percentages of berries that reached marketable red coloration for each cluster were averaged and recorded for each treatment. Additionally, representative berries from each treatment group were harvested about four weeks after treatment and analyzed for anthocyanin content.

[2] = test system: Crimson Seedless grape clusters; experiment: Field study, Example 1: visual rating of red grape coloration, % of berries with marketable color
Procedure: as §1, §2

C#CCC1=C(C)[C@](O)(/C=C/C(C)=C\C(=O)O)C(C)(C)CC1=O [3′-propargyl-(S)-ABA, K^+ salt, (2Z,4E)-5-((S)-1-hydroxy-2,6,6-trimethyl-4-oxo-3-(prop-2-yn-1-yl)cyclohex-2-en-1-yl)-3-methylpenta-2,4-dienoic acid]
Color Ratings (Crimson Seedless grapes; 4 ppm, 0.06-0.08 mg/cluster, 1.2-1.6 g/acre, 3 DAT): 1.1 | Color Ratings (Crimson Seedless grapes; 4 ppm, 0.06-0.08 mg/cluster, 1.2-1.6 g/acre, 10 DAT): 1.3 | Color Ratings (Crimson Seedless grapes; 4 ppm, 0.06-0.08 mg/cluster, 1.2-1.6 g/acre, 14 DAT): 1.5 | Color Ratings (Crimson Seedless grapes; 4 ppm, 0.06-0.08 mg/cluster, 1.2-1.6 g/acre, 21 DAT): 1.9 | Color Ratings (Crimson Seedless grapes; 4 ppm, 0.06-0.08 mg/cluster, 1.2-1.6 g/acre, 31 DAT): 2.4 | Color Ratings (Crimson Seedless grapes; 4 ppm, 0.06-0.08 mg/cluster, 1.2-1.6 g/acre, 41 DAT): 2.4 | Color Ratings (Crimson Seedless grapes; 20 ppm, 6-8 g/acre, 3 DAT): 1.1 | Color Ratings (Crimson Seedless grapes; 20 ppm, 6-8 g/acre, 10 DAT): 1.5 | Color Ratings (Crimson Seedless grapes; 20 ppm, 6-8 g/acre, 14 DAT): 1.8 | Color Ratings (Crimson Seedless grapes; 20 ppm, 6-8 g/acre, 21 DAT): 2.2 | Color Ratings (Crimson Seedless grapes; 20 ppm, 6-8 g/acre, 31 DAT): 2.9 | Color Ratings (Crimson Seedless grapes; 20 ppm, 6-8 g/acre, 41 DAT): 3.1 | Color Ratings (Crimson Seedless grapes; 40 ppm, 0.6-0.8 mg/cluster, 12-16 g/acre, 3 DAT): 1.1 | Color Ratings (Crimson Seedless grapes; 40 ppm, 0.6-0.8 mg/cluster, 12-16 g/acre, 10 DAT): 1.5 | Color Ratings (Crimson Seedless grapes; 40 ppm, 0.6-0.8 mg/cluster, 12-16 g/acre, 14 DAT): 1.8 | Color Ratings (Crimson Seedless grapes; 40 ppm, 0.6-0.8 mg/cluster, 12-16 g/acre, 21 DAT): 2.6 | Color Ratings (Crimson Seedless grapes; 40 ppm, 0.6-0.8 mg/cluster, 12-16 g/acre, 31 DAT): 3.1 | Color Ratings (Crimson Seedless grapes; 40 ppm, 0.6-0.8 mg/cluster, 12-16 g/acre, 41 DAT (end of six-week evaluation)): 3.3 | potency in promoting red color development compared with another compound (Crimson Seedless grapes; Crimson Seedless grapes): less potent than 3′-methyl-(S)-ABA | red color development in comparison with the untreated control (Crimson Seedless grapes): accelerated coloration

CC1=CC(=O)CC(C)(C)[C@@]1(O)/C=C/C(C)=C/C(=O)O [S-ABA, K^+ salt, (S)-abscisic acid]
Total Anthocyanin Content ([1]; 3-4 mg/cluster (200 ppm, 15-20 mL)): 73 mg/L | Total Anthocyanin Content ([1]; 6-8 mg/cluster (400 ppm, 15-20 mL)): 83 mg/L | Color Ratings (Crimson Seedless grapes; 200 ppm, 3-4 mg/cluster, 60-80 g/acre, 3 DAT): 1 | Color Ratings (Crimson Seedless grapes; 200 ppm, 3-4 mg/cluster, 60-80 g/acre, 10 DAT): 2.2 | Color Ratings (Crimson Seedless grapes; 200 ppm, 3-4 mg/cluster, 60-80 g/acre, 14 DAT): 2.6 | Color Ratings (Crimson Seedless grapes; 200 ppm, 3-4 mg/cluster, 60-80 g/acre, 21 DAT): 4.1 | Color Ratings (Crimson Seedless grapes; 200 ppm, 3-4 mg/cluster, 60-80 g/acre, 31 DAT): 5.1 | Color Ratings (Crimson Seedless grapes; 200 ppm, 3-4 mg/cluster, 60-80 g/acre, 41 DAT (end of six-week evaluation)): 5.4 | Color Ratings (Crimson Seedless grapes; 400 ppm, 6-8 mg/cluster, 120-160 g/acre, 3 DAT): 1 | Color Ratings (Crimson Seedless grapes; 400 ppm, 6-8 mg/cluster, 120-160 g/acre, 10 DAT): 2.9 | Color Ratings (Crimson Seedless grapes; 400 ppm, 6-8 mg/cluster, 120-160 g/acre, 14 DAT): 3.5 | Color Ratings (Crimson Seedless grapes; 400 ppm, 6-8 mg/cluster, 120-160 g/acre, 21 DAT): 4.5 | Color Ratings (Crimson Seedless grapes; 400 ppm, 6-8 mg/cluster, 120-160 g/acre, 31 DAT): 5.9 | Color Ratings (Crimson Seedless grapes; 400 ppm, 6-8 mg/cluster, 120-160 g/acre, 41 DAT (end of six-week evaluation)): 6.4 | red color development in comparison with the untreated control (Crimson Seedless grapes): dose-dependent accelerated red color development | Coloring Ratings, % of the berries with marketable color ([2]; 200 ppm, 3-4 mg/cluster, 60-80 grams/acre, 7 DAT): 41% | Coloring Ratings, % of the berries with marketable color ([2]; 200 ppm, 3-4 mg/cluster, 60-80 grams/acre, 14 DAT): 78% | Coloring Ratings, % of the berries with marketable color ([2]; 200 ppm, 3-4 mg/cluster, 60-80 grams/acre, 27 DAT): 84% | Coloring Ratings, % of the berries with marketable color ([2]; 200 ppm, 3-4 mg/cluster, 60-80 grams/acre, 33 DAT): 88% | Coloring Ratings, % of the berries with marketable color ([2]; 200 ppm, 3-4 mg/cluster, 60-80 grams/acre, 43 DAT): 89% | Coloring Ratings, % of the berries with marketable color ([2]; 400 ppm, 6-8 mg/cluster, 120-160 grams/acre, 7 DAT): 47% | Coloring Ratings, % of the berries with marketable color ([2]; 400 ppm, 6-8 mg/cluster, 120-160 grams/acre, 14 DAT): 80% | Coloring Ratings, % of the berries with marketable color ([2]; 400 ppm, 6-8 mg/cluster, 120-160 grams/acre, 27 DAT): 85% | Coloring Ratings, % of the berries with marketable color ([2]; 400 ppm, 6-8 mg/cluster, 120-160 grams/acre, 33 DAT): 88% | Coloring Ratings, % of the berries with marketable color ([2]; 400 ppm, 6-8 mg/cluster, 120-160 grams/acre, 43 DAT): 91% | time to reach ~90% marketable coloration ([2]; 400 ppm, 6 to 8 mg per cluster): five weeks; also recorded: five or six weeks

— patent US20160338351A1, “(S)-ABSCISIC ACID DERIVATIVES FOR ENHANCED GRAPE COLORATION” (Valent BioSciences Corporation, priority 2015, published 2016)
